Assay results from ChEMBL document CHEMBL1145737 (Bioorg Med Chem Lett, 2003).
Values after ≈ are worked out from the molar mass of the structure shown.

How the values were obtained:
[1] = target: Neuraminidase (Influenza A virus (A/Puerto Rico/8/1934(H1N1)), UniProt P03468); assay: Inhibitory concentration against influenza A virus sialidase A/PR/8/34
MDCK = assay: Inhibitory concentration against Influenza A virus (A/Yamagata/32/89) MDCK cells determined by plaque reduction assay; format: functional, cell-based; settings: Canis lupus familiaris
Mus musculus = assay: Median survival time was determined after oral administration (10 umol/kg) once daily for 5 days in mouse infected with influenza virus; format: functional

Neuraminidase (Influenza A virus (A/Puerto Rico/8/1934(H1N1)), UniProt P03468), sequence (P03468 whole entry): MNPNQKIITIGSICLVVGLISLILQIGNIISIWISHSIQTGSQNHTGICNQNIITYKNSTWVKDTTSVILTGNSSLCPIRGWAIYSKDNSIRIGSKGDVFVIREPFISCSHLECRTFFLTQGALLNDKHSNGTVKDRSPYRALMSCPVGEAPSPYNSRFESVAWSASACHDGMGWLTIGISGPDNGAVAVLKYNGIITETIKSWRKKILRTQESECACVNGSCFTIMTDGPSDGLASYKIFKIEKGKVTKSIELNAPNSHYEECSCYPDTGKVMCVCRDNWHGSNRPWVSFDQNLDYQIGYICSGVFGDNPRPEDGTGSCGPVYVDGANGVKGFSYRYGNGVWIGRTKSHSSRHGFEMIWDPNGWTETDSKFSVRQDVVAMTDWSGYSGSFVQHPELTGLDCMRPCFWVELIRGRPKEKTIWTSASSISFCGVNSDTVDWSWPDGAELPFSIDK

SMILES | IC50 [1] [nM] | IC50 (MDCK) [ng/mL] | Survival time (Mus musculus) [days]
CC(=O)N[C@H]1[C@H]([C@@H]2OCC(F)(F)[C@@H](O)[C@H]2O)OC(C(=O)O)=C[C@@H]1NC(=N)N | 27.1 | 1.4 (≈ 3.55 nM) | 
CC(=O)N[C@H]1[C@H]([C@@H]2OCC[C@@H](O)[C@H]2O)OC(C(=O)O)=C[C@@H]1NC(=N)N | 28.7 | 0.6 (≈ 1.67 nM) | 10
CC(=O)N[C@H]1[C@H]([C@@H]2OC[C@@H](O)[C@H]2O)OC(C(=O)O)=C[C@@H]1NC(=N)N | 17.7 | 1.4 (≈ 4.07 nM) | 
CC(=O)N[C@H]1[C@H]([C@@H]2C[C@H](O)[C@H](O)CO2)OC(C(=O)O)=C[C@@H]1NC(=N)N | 1030 | > 100 | 
CC(=O)N[C@H]1[C@H]([C@H]2C[C@@H](O)[C@@H](O)CO2)OC(C(=O)O)=C[C@@H]1NC(=N)N | 2780 | > 100 | 
CC(=O)N[C@H]1[C@H]([C@H]2C[C@H](O)[C@H](O)CO2)OC(C(=O)O)=C[C@@H]1NC(=N)N | 6.84 | > 100 | 
CC(=O)N[C@H]1[C@H]([C@@H]2OCCC[C@@H](O)[C@H]2O)OC(C(=O)O)=C[C@@H]1NC(=N)N | 33.3 | 2.2 (≈ 5.91 nM) | 
CC(=O)N[C@H]1[C@H]([C@H](O)[C@H](O)CO)OC(C(=O)O)=C[C@@H]1NC(=N)N [ZANAMIVIR] |  | 6.6 (≈ 19.9 nM) | 
CC(=O)N[C@H]1[C@H]([C@@H]2C[C@@H](O)[C@@H](O)CO2)OC(C(=O)O)=C[C@@H]1NC(=N)N | 10000 | > 100 | 
CC(=O)N[C@H]1[C@H]([C@H]2CCCCO2)OC(C(=O)O)=C[C@@H]1NC(=N)N | 735 | > 100 | 
